# Patent US6358885B1, “Substituted phenylheterocyclic herbicides” (Mississippi State University, priority 1992, dated 2002)
# Key:
# Assay in all cases: Test G preemergence/postemergence greenhouse plant response rating 0 to 100
# sandbur = format: in vivo, Cenchrus echinatus; details: 0 to 100 scale
# Excerpt: (§1) Seeds, rhizomes, or plant parts of alfalfa (Medicago ativa), annual bluegrass (Poa annua), bermudagrass (Cynodon dactylon), broadleaf signalgrass (Brachiaria plantaginea), common purslane (Portulaca oleracea), common ragweed (Ambrosia elatior), […] (Paspalum dilatatum), goosegrass (Eleusine indica), guineagrass (Panicum maximum), […] exaltata), johnsongrass (Sorghum halepense), large crabgrass (Digitaria sanguinalis), peanut (Arachis hypoagaea), pitted morningglory (Ipomoea lacunosa), purple nutsedge (Cyperus rotundus), sandbur (Cenchrus echinatus), smooth crabgrass (Digitaria ischaemum) and yellow nutsedge (Cyperus esculentus) were planted into greenhouse pots containing greenhouse planting medium. Each pot contained only one plant species. The test compound was dissolved in a non-phytotoxic solvent and applied preemergence and/or postemergence to the plants. Preemergence applications were made within one day of planting the seeds or plant parts. Postemergence applications were applied when the plants were in the two to four leaf stage (three to twenty cm). Test chemicals were dissolved in a non-phytotoxic solvent and applied preemergence and postemergence to the plants. Untreated control plants and treated plants were placed in the greenhouse and visually evaluated for injury at 13 to 21 days after herbicide application. […] A dash (-) response indicates no test result.
# itchgrass = format: in vivo, Rottboellia exaltata; details: 0 to 100 scale
# Excerpt: as §1
# purple nutsedge = format: in vivo, Cyperus rotundus; details: Rate 125 g/ha, 0 to 100 scale
# Excerpt: as §1
# pitted morningglory = format: in vivo, Ipomoea lacunosa; details: 0 to 100 scale
# Excerpt: as §1
# bermudagrass = format: in vivo, Cynodon dactylon; details: 0 to 100 scale
# Excerpt: as §1
# common purslane = format: in vivo, Portulaca oleracea; details: 0 to 100 scale
# Excerpt: as §1
# smooth crabgrass = format: in vivo, Digitaria ischaemum; details: 0 to 100 scale
# Excerpt: as §1
# alfalfa = format: in vivo, Medicago ativa; details: 0 to 100 scale
# Excerpt: as §1
# goosegrass = format: in vivo, Eleusine indica; details: 0 to 100 scale
# Excerpt: as §1
# common ragweed = format: in vivo, Ambrosia elatior; details: 0 to 100 scale
# Excerpt: as §1
# johnsongrass = format: in vivo, Sorghum halepense; details: 0 to 100 scale
# Excerpt: as §1
# dallisgrass = format: in vivo, Paspalum dilatatum; details: 0 to 100 scale
# Excerpt: as §1
# annual bluegrass = format: in vivo, Poa annua; details: 0 to 100 scale
# Excerpt: as §1
# large crabgrass = format: in vivo, Digitaria sanguinalis; details: 0 to 100 scale
# Excerpt: as §1
# broadleaf signalgrass = format: in vivo, Brachiaria plantaginea; details: 0 to 100 scale
# Excerpt: as §1
# guineagrass = format: in vivo, Panicum maximum; details: 0 to 100 scale
# Excerpt: as §1
smiles,measurement,setting,value
CCCOc1cc(-c2nn3c(c2Cl)CCCC3)c(F)cc1Cl [Compound 23],"Plant response rating, S. Sandbur","sandbur; POSTEMERGENCE, Rate 125 g/ha",0
same,"Plant response rating, S. Sandbur","sandbur; POSTEMERGENCE, Rate 250 g/ha",0
same,"Plant response rating, S. Sandbur","sandbur; PREEMERGENCE, Rate 125 g/ha",0
same,"Plant response rating, S. Sandbur","sandbur; PREEMERGENCE, Rate 250 g/ha",0
same,"Plant response rating, Itchgrass","itchgrass; POSTEMERGENCE, Rate 125 g/ha",0
same,"Plant response rating, Itchgrass","itchgrass; POSTEMERGENCE, Rate 250 g/ha",0
same,"Plant response rating, Itchgrass","itchgrass; PREEMERGENCE, Rate 125 g/ha",0
same,"Plant response rating, Itchgrass","itchgrass; PREEMERGENCE, Rate 250 g/ha",0
same,"Plant response rating, Purple Nutsedge",purple nutsedge; POSTEMERGENCE,0
same,"Plant response rating, Purple Nutsedge",purple nutsedge; PREEMERGENCE,0
same,"Plant response rating, Pit Morninglory","pitted morningglory; POSTEMERGENCE, Rate 125 g/ha",0
same,"Plant response rating, Pit Morninglory","pitted morningglory; POSTEMERGENCE, Rate 250 g/ha",0
same,"Plant response rating, Pit Morninglory","pitted morningglory; PREEMERGENCE, Rate 125 g/ha",0
same,"Plant response rating, Pit Morninglory","pitted morningglory; PREEMERGENCE, Rate 250 g/ha",0
same,"Plant response rating, Bermudagrass","bermudagrass; POSTEMERGENCE, Rate 125 g/ha",0
same,"Plant response rating, Bermudagrass","bermudagrass; POSTEMERGENCE, Rate 250 g/ha",0
same,"Plant response rating, Bermudagrass","bermudagrass; PREEMERGENCE, Rate 125 g/ha",0
same,"Plant response rating, Bermudagrass","bermudagrass; PREEMERGENCE, Rate 250 g/ha",50
same,"Plant response rating, Cmn Purslane","common purslane; POSTEMERGENCE, Rate 125 g/ha",70
same,"Plant response rating, Cmn Purslane","common purslane; POSTEMERGENCE, Rate 250 g/ha",50
same,"Plant response rating, Cmn Purslane","common purslane; PREEMERGENCE, Rate 125 g/ha",0
same,"Plant response rating, Cmn Purslane","common purslane; PREEMERGENCE, Rate 250 g/ha",100
same,"Plant response rating, Smooth Crabgras","smooth crabgrass; POSTEMERGENCE, Rate 125 g/ha",0
same,"Plant response rating, Smooth Crabgras","smooth crabgrass; POSTEMERGENCE, Rate 250 g/ha",0
same,"Plant response rating, Smooth Crabgras","smooth crabgrass; PREEMERGENCE, Rate 125 g/ha",0
same,"Plant response rating, Smooth Crabgras","smooth crabgrass; PREEMERGENCE, Rate 250 g/ha",20
same,"Plant response rating, Alfalfa Var.","alfalfa; POSTEMERGENCE, Rate 125 g/ha",0
same,"Plant response rating, Alfalfa Var.","alfalfa; POSTEMERGENCE, Rate 250 g/ha",0
same,"Plant response rating, Alfalfa Var.","alfalfa; PREEMERGENCE, Rate 125 g/ha",0
same,"Plant response rating, Alfalfa Var.","alfalfa; PREEMERGENCE, Rate 250 g/ha",0
same,"Plant response rating, Goosegrass","goosegrass; POSTEMERGENCE, Rate 125 g/ha",0
same,"Plant response rating, Goosegrass","goosegrass; POSTEMERGENCE, Rate 250 g/ha",0
same,"Plant response rating, Goosegrass","goosegrass; PREEMERGENCE, Rate 125 g/ha",90
same,"Plant response rating, Goosegrass","goosegrass; PREEMERGENCE, Rate 250 g/ha",40
same,"Plant response rating, Cmn Ragweed","common ragweed; POSTEMERGENCE, Rate 125 g/ha",60
same,"Plant response rating, Cmn Ragweed","common ragweed; POSTEMERGENCE, Rate 250 g/ha",20
same,"Plant response rating, Cmn Ragweed","common ragweed; PREEMERGENCE, Rate 125 g/ha",0
same,"Plant response rating, Cmn Ragweed","common ragweed; PREEMERGENCE, Rate 250 g/ha",0
same,"Plant response rating, Johnsongrass","johnsongrass; POSTEMERGENCE, Rate 125 g/ha",0
same,"Plant response rating, Johnsongrass","johnsongrass; POSTEMERGENCE, Rate 250 g/ha",0
same,"Plant response rating, Johnsongrass","johnsongrass; PREEMERGENCE, Rate 125 g/ha",0
same,"Plant response rating, Johnsongrass","johnsongrass; PREEMERGENCE, Rate 250 g/ha",0
same,"Plant response rating, Dallisgrass","dallisgrass; POSTEMERGENCE, Rate 125 g/ha",0
same,"Plant response rating, Dallisgrass","dallisgrass; POSTEMERGENCE, Rate 250 g/ha",0
same,"Plant response rating, Dallisgrass","dallisgrass; PREEMERGENCE, Rate 125 g/ha",0
same,"Plant response rating, Dallisgrass","dallisgrass; PREEMERGENCE, Rate 250 g/ha",20
same,"Plant response rating, Ann Bluegrass","annual bluegrass; POSTEMERGENCE, Rate 125 g/ha",0
same,"Plant response rating, Ann Bluegrass","annual bluegrass; POSTEMERGENCE, Rate 250 g/ha",0
same,"Plant response rating, Ann Bluegrass","annual bluegrass; PREEMERGENCE, Rate 125 g/ha",0
same,"Plant response rating, Ann Bluegrass","annual bluegrass; PREEMERGENCE, Rate 250 g/ha",0
same,"Plant response rating, Large Crabgrass","large crabgrass; POSTEMERGENCE, Rate 125 g/ha",0
same,"Plant response rating, Large Crabgrass","large crabgrass; POSTEMERGENCE, Rate 250 g/ha",0
same,"Plant response rating, Large Crabgrass","large crabgrass; PREEMERGENCE, Rate 125 g/ha",0
same,"Plant response rating, Large Crabgrass","large crabgrass; PREEMERGENCE, Rate 250 g/ha",70
same,"Plant response rating, Brdlf Sgnlgrass","broadleaf signalgrass; POSTEMERGENCE, Rate 125 g/ha",0
same,"Plant response rating, Brdlf Sgnlgrass","broadleaf signalgrass; POSTEMERGENCE, Rate 250 g/ha",0
same,"Plant response rating, Brdlf Sgnlgrass","broadleaf signalgrass; PREEMERGENCE, Rate 125 g/ha",0
same,"Plant response rating, Brdlf Sgnlgrass","broadleaf signalgrass; PREEMERGENCE, Rate 250 g/ha",0
same,"Plant response rating, Guineagrass","guineagrass; POSTEMERGENCE, Rate 125 g/ha",0
same,"Plant response rating, Guineagrass","guineagrass; POSTEMERGENCE, Rate 250 g/ha",0
same,"Plant response rating, Guineagrass","guineagrass; PREEMERGENCE, Rate 125 g/ha",0
same,"Plant response rating, Guineagrass","guineagrass; PREEMERGENCE, Rate 250 g/ha",0
